Measured values published in patent publication US20200071326A1, “TAM KINASE INHIBITORS” (Syros Pharmaceuticals, Inc., priority 2017, published 2020).
Structures can show the parent of a compound that is named as a salt.

Key:
MERTK = target: T1, MERTK (Homo sapiens, UniProt Q12866); experiment: IMAP fluorescence polarization kinase assay, MERTK; type: biochemical; conditions: ATP 2.69 μM, enzyme 1.5 nM, 240 minutes, read-out: MERTK inhibitory constant (Ki)
T1 sequence (Q12866 21-999): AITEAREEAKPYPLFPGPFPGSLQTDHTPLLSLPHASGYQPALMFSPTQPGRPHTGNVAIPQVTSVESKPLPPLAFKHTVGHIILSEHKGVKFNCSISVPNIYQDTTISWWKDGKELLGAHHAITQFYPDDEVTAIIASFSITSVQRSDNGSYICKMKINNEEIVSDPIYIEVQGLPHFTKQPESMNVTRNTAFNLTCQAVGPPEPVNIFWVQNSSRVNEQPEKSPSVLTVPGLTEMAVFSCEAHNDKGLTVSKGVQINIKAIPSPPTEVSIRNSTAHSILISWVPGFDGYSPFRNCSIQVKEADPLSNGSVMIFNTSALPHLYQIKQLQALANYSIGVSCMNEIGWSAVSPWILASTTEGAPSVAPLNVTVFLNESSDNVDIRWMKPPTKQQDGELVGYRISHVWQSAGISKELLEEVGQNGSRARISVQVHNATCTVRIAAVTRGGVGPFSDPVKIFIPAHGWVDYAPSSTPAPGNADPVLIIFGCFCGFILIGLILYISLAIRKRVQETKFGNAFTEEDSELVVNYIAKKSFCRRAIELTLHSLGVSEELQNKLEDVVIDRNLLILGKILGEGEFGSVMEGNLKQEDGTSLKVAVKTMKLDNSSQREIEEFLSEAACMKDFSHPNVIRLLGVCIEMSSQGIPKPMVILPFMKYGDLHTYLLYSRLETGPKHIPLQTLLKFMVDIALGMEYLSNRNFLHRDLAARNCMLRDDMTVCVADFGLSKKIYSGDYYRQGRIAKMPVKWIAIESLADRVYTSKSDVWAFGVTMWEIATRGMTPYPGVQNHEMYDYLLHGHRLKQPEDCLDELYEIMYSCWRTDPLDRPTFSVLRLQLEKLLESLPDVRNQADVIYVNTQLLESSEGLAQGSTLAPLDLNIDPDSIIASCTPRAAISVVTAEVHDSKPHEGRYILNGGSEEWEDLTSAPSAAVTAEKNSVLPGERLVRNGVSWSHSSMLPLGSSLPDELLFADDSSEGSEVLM
Protocol: (§1) Activities of compounds against each of TYRO3, AXL, and MERTK as well as against FLT3, were determined using an immobilized metal ion affinity-based fluorescence polarization (“IMAP”) assay. A fluorescently-labeled substrate peptide was phosphorylated in the kinase reaction, after which a binding solution containing large trivalent metal-based nanoparticles was added and the phosphorylated substrate binds to these beads. This reduces the rotational speed of the substrate which is then detected using fluorescence polarization as a read-out.
(§2) The substrates used for each enzyme are as follows: AXL: 5F1-KKKKEEIYFFFG-NH2(SEQ ID NO:1); FLT3: 5F1-KKKKEEIYFFF-NH2 (SEQ ID NO:2); MERTK: 5F1-EFPIYDFLPAKKK-NH2 (SEQ ID NO:3); and TYRO3: 5F1-EFPIYDFLPAKKK-NH2 (SEQ ID NO:4).
(§3) This assay was performed in a 384-well, polystyrene microplate in a final volume of 8 μl. Substrate (final concentration=400 nM), ATP (final concentrations=24.7μM for AXL; 2.74 μM for FLT3; 2.69 μM for MERTK; and 54.0 μM for TYRO3), compounds and enzyme (final concentrations=2.5 nM for AXL, FLT3 and TYRO3; 1.5 nM for MERTK) were pipetted in this order into the appropriate reaction buffer (AXL: 50 mM HEPES, pH 8.0, 1 mM DTT, 10 mM MgCl2, 0.01% BRU35, 0.01% Triton X-100; FLT3: 50 mM HEPES, pH 8.0, 1 mM DTT, 10 mM MgCl2, 0.01% Triton X-100, 0.01% NP40; MERTK/TYRO3: 50 mM HEPES, pH 8.0, 1 mM DTT, 10 mM MgCl2, 0.01% Triton X-100) and incubated at room temperature for varying times (AXL, FLT3 and MERTK: 240 minutes; TYRO3: 60 minutes). IMAP binding solution was then dispensed, the plate incubated for 60 minutes at room temperature and the fluorescence polarization measured. Data were analyzed using XLfit.

TYRO3 = target: T2, TYRO3 (Homo sapiens, UniProt Q06418); experiment: IMAP fluorescence polarization kinase assay, TYRO3; type: biochemical; conditions: ATP 54.0 μM, enzyme 2.5 nM, 60 minutes, read-out: TYRO3 inhibitory constant (Ki)
T2 sequence (Q06418 41-890): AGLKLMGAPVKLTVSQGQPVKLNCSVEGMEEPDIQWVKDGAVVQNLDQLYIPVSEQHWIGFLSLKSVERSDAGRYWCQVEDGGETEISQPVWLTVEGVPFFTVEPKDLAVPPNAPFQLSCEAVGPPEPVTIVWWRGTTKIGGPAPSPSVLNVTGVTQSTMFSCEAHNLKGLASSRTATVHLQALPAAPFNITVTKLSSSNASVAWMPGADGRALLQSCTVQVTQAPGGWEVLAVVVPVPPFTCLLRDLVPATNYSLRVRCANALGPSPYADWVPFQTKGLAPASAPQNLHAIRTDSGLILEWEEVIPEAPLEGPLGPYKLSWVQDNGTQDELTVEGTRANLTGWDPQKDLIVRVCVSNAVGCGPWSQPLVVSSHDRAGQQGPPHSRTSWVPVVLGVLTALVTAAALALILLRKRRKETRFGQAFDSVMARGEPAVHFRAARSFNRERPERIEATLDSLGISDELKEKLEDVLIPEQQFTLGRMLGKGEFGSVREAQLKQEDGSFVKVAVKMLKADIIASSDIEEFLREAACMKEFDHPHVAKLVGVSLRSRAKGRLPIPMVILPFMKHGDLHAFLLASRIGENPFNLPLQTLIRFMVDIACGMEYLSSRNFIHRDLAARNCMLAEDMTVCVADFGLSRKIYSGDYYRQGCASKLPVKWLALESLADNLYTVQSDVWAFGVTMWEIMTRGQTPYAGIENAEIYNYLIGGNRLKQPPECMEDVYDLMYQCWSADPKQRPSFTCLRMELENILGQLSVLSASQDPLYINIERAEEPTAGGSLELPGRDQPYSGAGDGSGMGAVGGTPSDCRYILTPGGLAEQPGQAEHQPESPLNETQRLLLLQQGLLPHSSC
Protocol: as §1, §2, §3

Compound | Ki (MERTK) [nM] | Ki (TYRO3) [nM]
N[C@H]1CC[C@H](Nc2c(C(=O)Nc3ccc(F)cc3)cnc3[nH]c(C(F)(F)F)cc23)CC1 [Compound 135, 4-(((1r,4r)-4-aminocyclohexyl)amino)-N-(4-fluorophenyl)-2-(trifluoromethyl)-1H-pyrrolo[2,3-b]pyridine-5-carboxamide hydrochloride] | < 100 | < 100
CCCC(O)c1cc2c(N[C@H]3CC[C@H](N)CC3)c(Br)cnc2[nH]1 (stereo partly shown) [Compound 137] | 100 to 1000 | 100 to 1000
CCOC(C)c1cc2c(N[C@H]3CC[C@H](N)CC3)c(C(=O)Nc3ccc(F)cc3)cnc2[nH]1 (stereo partly shown) [Compound 152] | 100 to 1000 | 100 to 1000
CCC[C@@H](C)c1cc2c(N[C@H]3CC[C@H](N)CC3)c(C(=O)Nc3ccc(F)cc3)cnc2[nH]1 [Compound 150] | < 100 | < 100
CCc1cc2c(N[C@H]3CC[C@H](N)CC3)c(C(=O)Nc3ccc(F)cc3)cnc2[nH]1 [Compound 136] | < 100 | < 100
CCCc1cc2c(N[C@H]3CC[C@H](N)CC3)c(C(=O)NC3CCN(c4ncccn4)CC3)cnc2[nH]1 [Compound 141] | < 100 | < 100
CCCc1cc2c(N[C@H]3CC[C@H](O)CC3)c(-c3ccc(CN4CCOCC4)cc3)cnc2[nH]1 [Compound 106, (1r,4r)-4-((5-(4-(morpholinomethyl)phenyl)-2-propyl-1H-pyrrolo[2,3-b]pyridin-4-yl)amino)cyclohexanol hydrochloride] | 100 to 1000 | 100 to 1000
CCCc1cc2c(N[C@H]3CC[C@H](N)CC3)c(-c3cc(OC)ncn3)cnc2[nH]1 [Compound 122] | < 100 | < 100
CCCc1cc2c(N[C@H]3CC[C@H](N)CC3)c(C(=O)NCc3ccc(-n4ccnc4)cc3)cnc2[nH]1 [Compound 121] | < 100 | < 100
CCCc1cc2c(N[C@H]3CC[C@H](O)CC3)c(-c3cnn(CCN(C)C)c3)cnc2[nH]1 [Compound 107] | 100 to 1000 | 100 to 1000
CCCc1cc2c(N[C@H]3CC[C@H](N)CC3)c(-c3cc(NC)ncn3)cnc2[nH]1 [Compound 111, (1r,4r)-N^1-(5-(6-(methylamino)pyrimidin-4-yl)-2-propyl-1H-pyrrolo[2,3-b]pyridine-4-yl)cyclohexane-1,4-diamine hydrochloride] | < 100 | < 100
CCC[C@H](C)c1cc2c(N[C@H]3CC[C@H](N)CC3)c(C(=O)Nc3ccc(F)cc3)cnc2[nH]1 [Compound 149] | 100 to 1000 | < 100
C#Cc1cc2c(N[C@H]3CC[C@H](N)CC3)c(C(=O)Nc3ccc(F)cc3)cnc2[nH]1 [Compound 128, [4-1(4-aminocyclohexyl)amino]-2-ethynyl-N-(4-fluorophenyl)-1H-pyrrolo[2,3-b]pyridine-5-carboxamide] | 100 to 1000 | 100 to 1000
CCc1cc2c(N[C@H]3CC[C@H](N)CC3)c(C(=O)NCc3ccc(-n4ccnc4)cc3)cnc2[nH]1 [Compound 119, N-(4-(1H-imidazol-1-yl)benzyl)-4-(((1r,4r)-4-aminocyclohexyl)amino)-2-ethyl-1H-pyrrolo[2,3-b]pyridine-5-carboxamide] | < 100 | < 100
CCCc1cc2c(N[C@H]3CC[C@H](N)CC3)c(-c3ccc(COC(C)C)cn3)cnc2[nH]1 [Compound 130] | < 100 | < 100
CCCC(O)c1cc2c(N[C@H]3CC[C@H](N)CC3)c(C(=O)Nc3ccc(F)cc3)cnc2[nH]1 (stereo partly shown) [Compound 154] | 1000 to 10000 | 100 to 1000
CCc1cc2c(N[C@H]3CC[C@H](N)CC3)c(C(=O)NC3CCN(c4ncccn4)CC3)cnc2[nH]1 [Compound 132] | < 100 | < 100
CCCc1cc2c(N[C@H]3CC[C@H](N)CC3)c(-c3cc(NC(C)C)ncn3)cnc2[nH]1 [Compound 112] | < 100 | < 100
Cc1cc2c(N[C@H]3CC[C@H](N)CC3)c(C(=O)Nc3ccc(F)cc3)cnc2[nH]1 [Compound 103] | < 100 | 1000 to 10000
CCCc1cc2c(N[C@H]3CC[C@H](O)CC3)c(-c3ccc(CNCC45C[C@H]6C[C@@H](C4)C[C@@H](C5)C6)cn3)cnc2[nH]1 [Compound 109] | < 100 | < 100
COC(C)c1cc2c(N[C@H]3CC[C@H](N)CC3)c(C(=O)Nc3ccc(F)cc3)cnc2[nH]1 (stereo partly shown) [Compound 145] | 100 to 1000 | 100 to 1000
CCC(CC)c1cc2c(N[C@H]3CC[C@H](N)CC3)c(C(=O)Nc3ccc(F)cc3)cnc2[nH]1 [Compound 147] | 100 to 1000 | < 100
CCC(OC)c1cc2c(N[C@H]3CC[C@H](N)CC3)c(C(=O)Nc3ccc(F)cc3)cnc2[nH]1 (stereo partly shown) [Compound 146] | 100 to 1000 | < 100
CCCc1cc2c(N[C@H]3CC[C@H](O)CC3)c(C(=O)NCc3ccc(-n4ccnc4)cc3)cnc2[nH]1 [Compound 102] | < 100 | < 100
N[C@H]1CC[C@H](Nc2c(C(=O)Nc3ccc(F)cc3)cnc3[nH]c(C4CCC4)cc23)CC1 [Compound 138, 4-(((1r,4r)-4-aminocyclohexyl)amino)-2-cyclobutyl-N-(4-fluorophenyl)-1H-pyrrolo[2,3-b]pyridine-5-carboxamide hydrochloride] | < 100 | < 100
COCC(C)c1cc2c(N[C@H]3CC[C@H](N)CC3)c(C(=O)Nc3ccc(F)cc3)cnc2[nH]1 (stereo partly shown) [Compound 155] | 100 to 1000 | < 100
